In experiment [1] the target is T1, Catalytic domains of human DNMT 3a/3L enzyme (Homo sapiens, UniProt Q9Y6K1).
T1 construct: Catalytic domains of human DNMT 3a/3L enzyme were produced by Accelagen; purchased Accelagen
Put plainly: DNMT inhibition assay (3H-SAM filter plate scintillation), DNMT 3a/3L. It counts as biochemical. As to conditions: Poly(dIdC) DNA 0.002 mg/mL, H3 SAM 500 nM, 30 min pre-incubation without SAM, 37° C. 1 h; read-out: DNMT 3a/3I IC50. Here is the method:
(§1) Catalytic domains of human DNMT 3a/3L enzyme were produced by Accelagen. Human full-length DNMT1 enzyme purchased from BPS Biosciences. Poly(dldC) DNA (Sigma) was used at 0.002 mg/mL. H3 SAM (Perkin Elmer) was used at 500 nM. DNA, DNMT enzyme, and inhibitors were mixed with assay buffer (20 mM Tris pH8, 5% glycerol, 1 mM EDTA, 100 μg/mL BSA, 1 mM DTT, 50 mM NaCl) and pre-incubated without SAM for 30 min. H3 SAM was then added to initiate the methylation reaction which continues at 37° C. for 1 h. Reaction mixture was then transferred to a filter plate (Millipore Multiscreen HTS DE), then washed with 50 mM H2PO4 and 95% Ethanol. Scintillation counts were measured on the Perkin Elmer Microbeta scintillation counter.

Experiment [2] addresses T2, Human full-length DNMT1 enzyme (Homo sapiens, UniProt P26358).
T2 construct: Human full-length DNMT1 enzyme purchased from BPS Biosciences; purchased BPS Biosciences
The experiment in a line: DNMT inhibition assay (3H-SAM filter plate scintillation), DNMT1. As to conditions: Poly(dIdC) DNA 0.002 mg/mL, H3 SAM 500 nM, 30 min pre-incubation without SAM, 37° C. 1 h. It counts as biochemical. The method, then:
as §1

pIC50: −log10 of the molar value.

T2 sequence (P26358 whole entry): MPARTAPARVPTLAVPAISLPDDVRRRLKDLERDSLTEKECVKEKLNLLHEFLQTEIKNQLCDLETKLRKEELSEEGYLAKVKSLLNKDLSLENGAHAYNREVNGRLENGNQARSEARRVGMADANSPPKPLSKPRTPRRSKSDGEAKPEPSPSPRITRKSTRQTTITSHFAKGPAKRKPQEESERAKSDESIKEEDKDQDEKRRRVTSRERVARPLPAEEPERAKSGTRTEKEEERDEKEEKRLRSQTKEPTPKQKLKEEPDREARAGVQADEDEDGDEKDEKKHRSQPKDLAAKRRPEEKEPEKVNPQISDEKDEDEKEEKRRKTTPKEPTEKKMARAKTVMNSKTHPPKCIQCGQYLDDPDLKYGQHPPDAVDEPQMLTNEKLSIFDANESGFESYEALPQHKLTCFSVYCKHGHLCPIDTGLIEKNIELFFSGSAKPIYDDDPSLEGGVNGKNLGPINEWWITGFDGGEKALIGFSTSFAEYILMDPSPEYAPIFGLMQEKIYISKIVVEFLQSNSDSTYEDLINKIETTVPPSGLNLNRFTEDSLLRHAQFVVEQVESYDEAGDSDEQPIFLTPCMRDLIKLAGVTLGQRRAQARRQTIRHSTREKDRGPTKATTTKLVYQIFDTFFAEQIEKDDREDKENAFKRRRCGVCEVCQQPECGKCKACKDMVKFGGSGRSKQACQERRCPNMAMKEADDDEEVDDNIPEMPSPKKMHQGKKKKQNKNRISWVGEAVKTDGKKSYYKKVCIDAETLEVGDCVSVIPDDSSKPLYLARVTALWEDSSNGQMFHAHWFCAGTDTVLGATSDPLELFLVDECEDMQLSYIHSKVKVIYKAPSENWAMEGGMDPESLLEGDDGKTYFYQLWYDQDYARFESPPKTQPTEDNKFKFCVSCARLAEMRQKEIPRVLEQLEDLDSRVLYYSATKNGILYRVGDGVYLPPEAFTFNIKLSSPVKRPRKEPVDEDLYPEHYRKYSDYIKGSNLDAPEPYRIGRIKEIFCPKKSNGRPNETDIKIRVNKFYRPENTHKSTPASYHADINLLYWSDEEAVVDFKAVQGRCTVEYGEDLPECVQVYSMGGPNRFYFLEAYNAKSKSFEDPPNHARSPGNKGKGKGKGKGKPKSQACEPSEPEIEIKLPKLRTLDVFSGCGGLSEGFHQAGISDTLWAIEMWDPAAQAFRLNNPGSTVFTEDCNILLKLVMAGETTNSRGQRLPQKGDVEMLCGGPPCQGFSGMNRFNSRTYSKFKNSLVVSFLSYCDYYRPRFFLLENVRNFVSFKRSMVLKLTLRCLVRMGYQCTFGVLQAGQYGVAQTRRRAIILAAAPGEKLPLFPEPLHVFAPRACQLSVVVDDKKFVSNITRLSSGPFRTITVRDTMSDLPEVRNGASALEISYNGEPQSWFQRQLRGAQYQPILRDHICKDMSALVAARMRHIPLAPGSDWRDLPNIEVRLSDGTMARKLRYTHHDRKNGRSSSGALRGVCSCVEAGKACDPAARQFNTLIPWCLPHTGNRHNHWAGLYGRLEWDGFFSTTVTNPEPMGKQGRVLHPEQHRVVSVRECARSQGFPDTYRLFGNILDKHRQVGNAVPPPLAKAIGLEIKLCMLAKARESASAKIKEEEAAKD
T1 sequence (Q9Y6K1 634-912 limits assumed): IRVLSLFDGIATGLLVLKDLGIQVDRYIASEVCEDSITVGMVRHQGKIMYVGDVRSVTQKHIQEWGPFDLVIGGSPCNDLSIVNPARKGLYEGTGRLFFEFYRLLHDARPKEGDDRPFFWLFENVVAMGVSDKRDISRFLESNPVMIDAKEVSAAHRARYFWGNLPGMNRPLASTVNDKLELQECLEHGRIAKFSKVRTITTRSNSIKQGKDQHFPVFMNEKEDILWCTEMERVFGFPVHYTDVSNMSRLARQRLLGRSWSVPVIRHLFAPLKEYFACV
T1 sequence (Q9UJW3 178-386 partner limits assumed): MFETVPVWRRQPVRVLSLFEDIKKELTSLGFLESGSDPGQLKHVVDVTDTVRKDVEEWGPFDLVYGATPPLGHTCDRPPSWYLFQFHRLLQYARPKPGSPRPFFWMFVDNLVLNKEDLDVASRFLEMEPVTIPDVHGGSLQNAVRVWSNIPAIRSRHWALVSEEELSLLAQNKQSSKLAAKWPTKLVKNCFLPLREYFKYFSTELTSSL

On to `Nc1ncnc2c1ncn2[C@H]1O[C@@H](CSCCNc2ccncn2)[C@H](O)[C@@H]1O` [Example 3, (2S,3S,4R,5R)-2-(6-Amino-9H-purin-9-yl)-5-(((2-(pyrimidin-4-ylamino)ethyl)thio)methyl)tetrahydrofuran-3,4-diol], for which the pIC50 in experiment [1] was 4.59. For the molecule `Nc1ncnc2c1ncn2[C@H]1O[C@@H](CSCCNc2nccc(Cl)n2)[C@H](O)[C@@H]1O` [Example 1, (2S,3S,4R,5R)-2-(6-Amino-9H-purin-9-yl)-5-(((2-((4-chloropyrimidin-2-yl)amino)ethyl)thio)methyl)tetrahydrofuran-3,4-diol], the pIC50 is under 3.52 in experiment [2] and 5.52 in experiment [1]. With `Nc1ncnc2c1ncn2[C@H]1O[C@@H](CSCCNc2cc(Cl)ncn2)[C@H](O)[C@@H]1O` [Example 4], the pIC50 is 4.32 in experiment [2] and 4.22 in experiment [1]. `C=CC(=O)NCCSC[C@@H]1O[C@H](n2cnc3c(N)ncnc32)[C@@H](O)[C@H]1O` [Example 5, N-(2-((((2R,3R,4S,5S)-5-(6-Amino-9H-purin-9-yl)-3,4-di hydroxytetrahydrofuran-2-yl)methyl)thio)ethyl)acrylamide]: the figures for the pIC50 in experiment [2] and in experiment [1] were 4.31 and 4.62, respectively. Take `Nc1ncnc2c1ncn2[C@H]1O[C@@H](CSCCNc2ccnc(Cl)n2)[C@H](O)[C@@H]1O` [Example 2, (2S,3S,4R,5R)-2-(6-Amino-9H-purin-9-yl)-5-(((2-((2-chloropyrimidin-4-yl)amino)ethyl)thio)methyl)tetrahydrofuran-3,4-diol]: in experiment [1], the pIC50 was 4.02.
